Reference: publication PMC9540667, “Novel insights on [1,2]oxazolo[5,4‐e]isoindoles on multidrug resistant acute myeloid leukemia cell line” (Drug Development Research, 2022)
Read-outs that look alike come from different tables or passages of the source.

Experiments:
[1] = test system: HL‐60 cells; assay: Cell growth assay (MTS), HL-60 cells; format: cell-based; settings: mean ± SE
Description: (§1) HL‐60 cells were obtained from ATCC® (CCL‐240), whereas its variant HL‐60R was selected for MDR by exposure to gradually increasing concentrations of doxorubicin. MCF‐7 cells were obtained from ATCC® (HTB‐22). The nontumorigenic cell lines hTERT‐RPE‐1 (ATCC, CRL‐4010) and 1‐7HB2 (ECACC 10081201‐Cancer Research Technology) was kindly provided by Prof. Patrizia Cancemi and Prof. Giulio Ghersi (STEBICEF Department, University of Palermo, Italy), respectively. Cells were cultured in a humidified atmosphere at 37°C in 5% CO2. After obtaining the cells, the first passage carried out was assigned passage number 1. Cells with a narrow range of passage number […] were routinely tested for Mycoplasma contamination and were used for all experiments. HL‐60 and HL‐60R cells were cultured in Roswell Park Memorial Institute (RPMI) 1640, while MCF‐7, hTERT‐RPE‐1, and 1‐7HB‐2 cells were cultured in Dulbecco's Modified Eagle Medium (DMEM) (HyClone Europe Ltd.) low glucose, in particular only for 1‐7HB‐2 cells supplemented with hydrocortisone (5 μg/ml) and insulin (10 μg/ml). All media were supplemented with 10% heat‐inactivated fetal calf serum, 2 mM L‐glutamine, 100 U/ml penicillin, and 100 μg/ml streptomycin (all reagents were from EuroClone S.p.A.; GE Healthcare Life Sciences).
(§2) Cells were seeded at 5 × 10^3 cells/well onto 96 well plates and incubated overnight at 37°C. At time 0, the medium was replaced with fresh complete medium supplemented with the [1,2]oxazolo[5,4‐e]isoindoles at large concentrations range. Following 72 h of treatment, 15 µl commercial solution obtained from Promega Corp. containing 3‐(4,5‐dimethylthiazol‐2‐yl)−5‐(3‐carboxymethoxyphenyl)−2‐(4‐sulphophenyl)−2H‐tetrazolium (MTS) and phenazine ethosulfate was added. The plates were incubated in a humidified atmosphere at 37°C in 5% CO2 for 2 h, and the bioreduction of MTS dye was evaluated by measuring the absorbance of each well at 490 nm using a microplate absorbance reader (iMark Microplate Reader; Bio‐Rad Laboratories, Inc.). Cell growth inhibition was expressed as a percentage of the absorbance of the control cells. Data were expressed as mean ± standard error (SE) of at least three different experiments performed in triplicate.

[2] = test system: HL‐60R cells; assay: Cell growth assay (MTS), HL-60R MDR variant; format: cell-based; settings: 72 h of treatment, mean ± SE
Description: as §1, §2

[3] = test system: MCF‐7 cells; assay: Cell growth assay (MTS), MCF-7 breast cancer cells; format: cell-based; settings: the maximum concentration used in the MTS assay is reported
Description: as §1, §2

[4] = test system: hTERT‐RPE‐1 cells; assay: Cell growth assay (MTS), non-tumorigenic hTERT-RPE-1 cells; format: cell-based; settings: the maximum concentration used in the MTS assay is reported, read-out: h‐TERT‐RPE‐1 (IC50)
Description: as §1, §2

[5] = test system: 1‐7HB2 cells; assay: Cell growth assay (MTS), non-tumorigenic 1-7HB2 cells; format: cell-based; settings: 72 h, the maximum concentration used in the MTS assay is reported
Description: as §1, §2

[6] = test system: HL‐60R cells; assay: Viable cell count with Trypan blue exclusion test (cotreatments); format: cell-based; settings: for synergistic / potentiation effect with the reference drugs (VIN or PTX): cotreatment at sub-cytotoxic concentrations
Description: Potentiation or synergism due to cotreatments were evaluated by viable cell count with Trypan blue exclusion test. Data were expressed as mean ± SE of at least three different experiments performed in duplicate.

[7] = test system: HL‐60R cell line; assay: Intracellular accumulation of doxorubicin (flow cytometry); format: cell-based
Description: The effects of 4e and 4k on intracellular accumulation of doxorubicin were evaluated in the HL‐60R cell line. […] After 24 h of incubation doxorubicin 2 µM was added for 1 h. The cells were subsequently washed with PBS twice and then resuspended in a final volume of 400 µl of PBS. The fluorescence intensity of doxorubicin was measured by flow cytometry using a FACSAria III instrument (Becton Dickinson).

[8] = test system: HL‐60R cells; assay: Cell death by flow cytometry (propidium iodide, preG0-G1 events); format: cell-based
Description: Cells were collected and washed twice with ice‐cold PBS and then resuspended in a hypotonic fluorochrome solution containing propidium iodide (PI) 50 µg/ml in 0.1% sodium citrate plus 0.03% (v/v) Nonidet P‐40, at 1 × 10^6/ml. After incubation (at least 1 h at 4°C) in this solution, the samples were filtered through nylon cloth, 40 µm mesh, and their fluorescence was analyzed using a FACSCanto instrument (Becton Dickinson). The data were analyzed with BD FACSDiva software v.6.1.2. (Becton Dickinson). Cell death was determined by evaluating the percentage of events accumulated in the preG0‐G1 position.

[9] = molecular target: T1, recombinant human P‐gp membranes (Homo sapiens, UniProt P08183); assay: P-gp ATPase activity (Pgp-Glo assay); format: biochemical; settings: compound at its IC50; verapamil 0.5 mM
T1 construct: purchased Promega
T1 sequence (P08183 whole entry): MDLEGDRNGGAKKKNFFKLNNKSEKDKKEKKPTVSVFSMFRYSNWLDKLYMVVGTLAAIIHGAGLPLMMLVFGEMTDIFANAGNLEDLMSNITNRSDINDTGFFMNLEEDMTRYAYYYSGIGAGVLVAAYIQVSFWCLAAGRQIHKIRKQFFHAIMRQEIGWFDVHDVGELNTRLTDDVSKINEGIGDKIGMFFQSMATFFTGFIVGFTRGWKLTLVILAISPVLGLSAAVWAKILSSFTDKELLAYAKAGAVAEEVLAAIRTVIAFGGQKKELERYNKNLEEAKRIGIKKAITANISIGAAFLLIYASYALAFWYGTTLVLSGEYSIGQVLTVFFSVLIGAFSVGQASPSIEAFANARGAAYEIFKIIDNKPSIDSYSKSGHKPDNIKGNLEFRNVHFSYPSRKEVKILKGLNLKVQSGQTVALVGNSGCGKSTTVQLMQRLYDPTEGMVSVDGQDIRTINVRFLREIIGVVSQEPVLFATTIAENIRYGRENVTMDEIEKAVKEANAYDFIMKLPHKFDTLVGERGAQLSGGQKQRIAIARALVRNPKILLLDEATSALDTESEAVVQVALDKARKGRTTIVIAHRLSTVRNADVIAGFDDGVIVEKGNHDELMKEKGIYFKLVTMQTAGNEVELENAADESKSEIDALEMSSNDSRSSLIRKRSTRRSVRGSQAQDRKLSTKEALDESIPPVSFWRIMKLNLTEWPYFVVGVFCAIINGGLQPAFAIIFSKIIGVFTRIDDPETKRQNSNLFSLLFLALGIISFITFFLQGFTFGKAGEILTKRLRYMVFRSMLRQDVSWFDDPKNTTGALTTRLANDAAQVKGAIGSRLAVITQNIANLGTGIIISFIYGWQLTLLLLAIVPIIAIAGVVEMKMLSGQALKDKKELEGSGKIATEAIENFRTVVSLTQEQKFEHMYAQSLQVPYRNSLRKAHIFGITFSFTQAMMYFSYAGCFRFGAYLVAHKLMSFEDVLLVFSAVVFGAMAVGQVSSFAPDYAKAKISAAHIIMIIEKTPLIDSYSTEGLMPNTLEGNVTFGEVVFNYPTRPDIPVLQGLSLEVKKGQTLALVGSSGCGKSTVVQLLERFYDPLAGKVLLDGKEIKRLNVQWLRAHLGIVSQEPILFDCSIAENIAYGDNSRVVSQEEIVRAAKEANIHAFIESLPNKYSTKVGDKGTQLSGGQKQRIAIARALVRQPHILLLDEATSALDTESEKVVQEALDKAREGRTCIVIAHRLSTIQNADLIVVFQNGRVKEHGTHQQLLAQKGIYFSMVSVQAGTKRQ
Description: P‐gp ATPase activity was performed with Pgp‐Glo™ Assay Systems (Promega) following manufacturer's instructions. The compounds 4e and 4k, at their IC50s (test compound [TC]) were added to a 96‐well white plate in duplicate and incubated with recombinant human P‐gp membranes. The compound Na3VO4 (0.25 mM) was used as the selective inhibitor of P‐gp ATPase activity while negative control (no treatment [NT]) with only Pgp‐GLO assay buffer was used to provide a measure of unregulated ATPase activity. Verapamil (0.5 mM) is a P‐gp substrate that stimulates P‐gp ATPase activity and represents the positive control for drug stimulation of P‐gp ATPase activity. In fact, it is not a pure inhibitor of P‐gp function as well as Na3VO4, but in association with another P‐gp substrate like doxorubicin, it behaves as a competitive antagonist, that is, an efflux inhibitor. […]
Luminescence was measured using a GLOMAX Multidetection System (Promega). The data were presented as change in luminescence (ΔRLU), calculated as follows: ΔRLUbasal is the difference between the average luminescent signals from Na3VO4‐treated samples (RLUNa3VO4) and untreated (NT) samples (RLUNT), ΔRLUTC that reflects P‐gp ATPase activity in the presence of the test compounds, is the difference between the average luminescent signals from Na3VO4‐treated samples (RLUNa3VO4) and test compound‐treated samples (RLUTC).

[10] = test system: tubulin in HL‐60 cells; assay: Tubulin polymerization assay (soluble/polymerized fraction, western blot), HL-60; format: cell-based; settings: HL-60, 24 h at the IC50 at 72 h
Description: (§3) To separate cytosolic and cytoskeletal‐associated proteins, cells were rinsed in PEM buffer (0.1 M PIPES, pH 6.94; 2 mM EGTA; 1 mM MgCl2; 10% glycerol; 1 µM protease inhibitors cocktail; 0.5% Nonidet NP‐40), lysed at room temperature for 10 min with the same buffer (200 µl). After centrifugation (14,000 rpm at 4°C for 10 min), the soluble fraction (supernatant) was separated from polymerized fraction (pellet); the latter was resuspended in the same buffer (200 µl).
(§4) Both the fractions were then diluted 3:1 with 4 × SDS‐PAGE sample buffer. Proteins were separated by SDS‐PAGE, and tubulin distribution was analyzed by immunoblotting using anti‐α‐tubulin antibody (Sigma‐Aldrich). Hybridization was visualized using an enhanced chemiluminescence detection kit (SuperSignal West Femto Maximum Sensitivity Substrate, Thermo Scientific Life Technologies Italia) and the Versa DOC imaging system (BioRad Laboratories).

[11] = test system: tubulin in HL‐60R cells; assay: Tubulin polymerization assay (soluble/polymerized fraction, western blot), HL-60R; format: cell-based; settings: 24 h at the IC50 at 72 h
Description: as §3, §4

[12] = test system: XIAP, IAP‐1, Bcl‐2 in HL‐60R cells; assay: Western blot of antiapoptotic factors (survivin, XIAP, IAP-1, Bcl-2); format: cell-based; settings: co-treatment of 4k and PTX
Description: Whole‐cell lysates were obtained from HL‐60R cells using RIPA buffer (Santa Cruz Biotechnology Inc.) and 25 µg protein was subjected to 10% SDS‐PAGE and transferred to nitrocellulose membrane (Amersham, Pharmacia Biotech) using a semi‐dry fast blot apparatus (Bio‐Rad). Membranes were blocked with 5% (w/v) BSA in PBS‐0.1% (v/v) Tween 20 for 1 h and then filters were incubated with primary antibodies raised against GAPDH (1:20,000; Sigma‐Aldrich Srl Milan), XIAP (1:500; Cell Signaling Technology, Inc), survivin (1:2000; Abcam Limited), Bcl‐2 (1:1000; Santa Cruz Biotechnology Inc.) and IAP‐1 (1:1000; Cell Signaling Technology, Inc). Hybridization was visualized using an enhanced chemiluminescence detection kit (SuperSignal West Femto Maximum Sensitivity Substrate, Thermo Scientific Life Technologies Italia) and the Versa DOC imaging system (BioRad Laboratories). Immunoblots were quantified by densitometry measurements after normalization with glyceraldehyde‐3‐phosphate dehydrogenase and results were expressed as fold changes.

[13] = Homo sapiens, HL-60, 72 h of treatment

IC50 ([1]; 72 h of treatment)	IC50 [2]	IC50 ([3]; 72 h)	IC50 [1, 13]	IC50 ([2]; HL60R)	SMILES	IC50 ([4]; 72 h)	IC50 [5]	synergistic / potentiation effect with the reference drugs (VIN or PTX) [6]	further results
1900 ± 900 nM	2100 ± 200 nM	> 50 µM			c1ccc(Cn2cc3c(c2)-c2oncc2CC3)cc1 [4a]	> 20 µM	> 20 µM	synergistic effect	Cell growth inhibition (%) ([6]; 48 h, alone at 1 µM): 2.5 ± 1.8%
600 ± 10 nM	700 ± 90 nM	> 50 µM			COc1ccc(Cn2cc3c(c2)-c2oncc2CC3)cc1OC [4d]	> 5 µM	> 5 µM		
					COc1ccc(CCN(C)CCCC(C#N)(c2ccc(OC)c(OC)c2)C(C)C)cc1OC (stereo not drawn) [Verapamil, reference compound]				Fluorescence (%) HL‐60R ([7]; 10 µM for 24 h, without doxorubicin): 0.3 ± 0.1%; Fluorescence (%) HL‐60R (intracellular accumulation of doxorubicin) ([7]; pretreated 10 µM for 24 h + Doxo 2 µM 1 h): 58.5 ± 2.5 %
			3000 ± 250 nM	5500 ± 1400 nM	COc1ccc(Cn2cc3c(c2-c2cc(OC)c(OC)c(OC)c2)CCc2cnoc2-3)cc1OC [4k, 7‐(3,4‐dimethoxybenzyl)−6‐(3,4,5‐trimethoxyphenyl)−5,7‐dihydro‐4H‐[1,2]oxazolo[5,4‐e]isoindole]		> 20 µM	synergistic effect	IC50 ([3]; Homo sapiens, MCF7, 72 h): > 50 µM; IC50 ([4]; hTERT-RPE1, 72 h): > 20 µM; synergistic effect in induction of cell death ([8]; HL-60R, in combination with PTX and VIN): strong synergistic effect; Fluorescence (%) HL‐60R ([7]; 5.50 µM for 24 h, without doxorubicin): 0.3 ± 0.1%; Fluorescence (%) HL‐60R (intracellular accumulation of doxorubicin) ([7]; pretreated 5.50 µM for 24 h + Doxo 2 µM 1 h): 22.5 ± 1.1 %; effect on verapamil‐stimulated P‐gp ATPase activity [9]: significative increase; effect on soluble / polymerized tubulin fraction [10]: increasing the soluble fraction of tubulin; effect on soluble / polymerized tubulin fraction [11]: increasing the soluble fraction of tubulin; protein expression of antiapoptotic factors XIAP, IAP‐1 and Bcl‐2 [12]: substantial protein expression decrease
			50 nM	820 ± 20 nM	CC[C@]1(O)C[C@@H]2CN(CCc3c([nH]c4ccccc34)[C@@](C(=O)OC)(c3cc4c(cc3OC)N(C)[C@H]3[C@@](O)(C(=O)OC)[C@H](OC(C)=O)[C@]5(CC)C=CCN6CC[C@]43[C@@H]65)C2)C1 [Vinblastine, reference compound]				inhibition at 0.3 µM ([6]; HL60R, 48 h, alone at 0.3 µM, read-out: Cell growth inhibition (%)): 0%
					COc1cccc2c1C(=O)c1c(O)c3c(c(O)c1C2=O)C[C@@](O)(C(=O)CO)C[C@@H]3O[C@H]1C[C@H](N)[C@H](O)[C@H](C)O1 [Doxorubicin, doxorubicin, reference compound]				Fluorescence (%) HL‐60R ([7]; Doxo 2 µM 1 h alone): 4.4%; Fluorescence (%) HL‐60R ([7]; Doxo 2 µM 1 h alone, listed as Doxo): 4.4 ± 0.3%
		> 50 µM			COc1cccc(Cn2cc3c(c2)-c2oncc2CC3)c1 [4c]	> 5 µM	> 5 µM	synergistic effect	Cell growth inhibition (%) ([6]; 48 h, alone at 0.2 µM): 42.5 ± 0.3%
		> 5 µM			COc1cc(Cn2cc3c(c2)-c2oncc2CC3)cc(OC)c1OC [4e]	> 0.1 µM	> 0.1 µM	not detected any potentiation	Fluorescence (%) HL‐60R ([7]; 0.04 µM for 24 h, without doxorubicin): 0.2 ± 0.07%; Fluorescence (%) HL‐60R (intracellular accumulation of doxorubicin) ([7]; pretreated 0.04 µM for 24 h + Doxo 2 µM 1 h): 8.8 ± 0.3 %
2100 ± 400 nM	2400 ± 800 nM	> 50 µM			COc1ccccc1Cn1cc2c(c1)-c1oncc1CC2 [4b]	> 20 µM	> 20 µM		
			20 ± 40 nM	1300 ± 140 nM	CC(=O)O[C@H]1C(=O)[C@@]2(C)[C@H]([C@H](OC(=O)c3ccccc3)[C@]3(O)C[C@H](OC(=O)[C@H](O)[C@@H](NC(=O)c4ccccc4)c4ccccc4)C(C)=C1C3(C)C)[C@]1(OC(C)=O)CO[C@@H]1C[C@@H]2O [Paclitaxel, reference compound]				inhibition at 1 µM ([6]; HL60R, 48 h, alone at 1 µM, read-out: Cell growth inhibition (%)): 13 ± 9.2%; Percentage of events accumulated in the pre G0‐G1 position (cell death) ([8]; 48 h, 1 µM): 7.6%; effect on soluble / polymerized tubulin fraction [10]: marked increase in the polymerized fraction; effect on soluble / polymerized tubulin fraction [11]: marked increase in the polymerized fraction
